Assays:
[1] = biological target: T1, human orexin-1 receptor (hOX1R) (Homo sapiens, UniProt O43613); test: Measurement of orexin antagonistic activity (intracellular Ca2+ fluorescence, FDSS) on hOX1R; format: cell-based; conditions: CHO cells forcibly expressing hOX1R; Fluo-4AM; ligand peptide (substituted human orexin-A) 300 pM; compound preincubated 30 minutes; read-out: IC50 Value OX1
T1 construct: expressed in transfected cells; host or cells: Chinese hamster ovary (CHO) cells
T1 sequence (O43613 1-425): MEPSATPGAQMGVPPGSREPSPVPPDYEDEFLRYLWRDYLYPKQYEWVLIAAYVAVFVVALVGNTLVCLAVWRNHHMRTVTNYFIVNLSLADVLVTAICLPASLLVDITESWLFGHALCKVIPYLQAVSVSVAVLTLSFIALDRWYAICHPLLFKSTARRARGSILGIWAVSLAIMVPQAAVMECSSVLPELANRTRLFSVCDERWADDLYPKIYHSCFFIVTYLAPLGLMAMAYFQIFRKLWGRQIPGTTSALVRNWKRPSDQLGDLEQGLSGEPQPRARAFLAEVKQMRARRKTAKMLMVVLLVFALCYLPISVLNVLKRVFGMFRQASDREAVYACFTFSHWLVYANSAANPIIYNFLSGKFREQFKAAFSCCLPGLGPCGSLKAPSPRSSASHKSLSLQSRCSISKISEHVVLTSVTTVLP
Protocol: (§1) The antagonistic activities of the test compounds on human orexin-1 receptor (hOX1R) and orexin-2 receptor (hOX2R) were measured by modifying from the method described in literature (Toshikatsu Okumura et al., Biochemical and Biophysical Research Communications, 280, 976-981, 2001). Chinese hamster ovary (CHO) cells forcibly expressing the hOX1R and hOX2R were seeded into a 96 well Black clear bottom plate (Nunc) at 20,000 cells per well, which were cultured in Ham's F-12 medium containing 0.1 mM MEM non-essential amino acids, 0.5 mg/mL G418, 10% fetal bovine serum (all by Invitrogen) for 16 hours under the conditions of 37° C., 5% CO2. After removing the medium, 100 μL of 0.5 μM Fluo-4AM ester (Dojin) in an assay buffer (25 mM HEPES (Dojin), Hank's balanced salt solution (Invitrogen), 0.1% bovine serum albumin, 2.5 mM probenecid, 200 μg/mL Amaranth (all by Sigma-Aldrich), pH 7.4) was added and the cells were incubated for 60 minutes at 37° C., 5% CO2. After removing the assay buffer containing fluo-4AM ester, the test compound was dissolved in dimethyl sulfoxide to be 10 mM and diluted with the assay buffer, 150 μL, of which was added and incubated for 30 minutes.
(§2) The reaction was measured for the fluorescence intensity of each well every second for 3 minutes using Functional Drug Screening System (FDSS; Hamamatsu Photonics K.K.), and the antagonistic activity was determined using the maximum fluorescence intensity as the indicator of intracellular Ca2+ concentration.

[2] = biological target: T2, orexin-2 receptor (hOX2R) (Homo sapiens, UniProt O43614); test: Measurement of orexin antagonistic activity (intracellular Ca2+ fluorescence, FDSS) on hOX2R; format: cell-based; conditions: CHO cells forcibly expressing hOX2R; Fluo-4AM; ligand peptide (substituted human orexin-A) 3 nM; compound preincubated 30 minutes; read-out: IC50 Value OX2
T2 construct: expressed in transfected cells; host or cells: Chinese hamster ovary (CHO) cells
T2 sequence (O43614 1-444): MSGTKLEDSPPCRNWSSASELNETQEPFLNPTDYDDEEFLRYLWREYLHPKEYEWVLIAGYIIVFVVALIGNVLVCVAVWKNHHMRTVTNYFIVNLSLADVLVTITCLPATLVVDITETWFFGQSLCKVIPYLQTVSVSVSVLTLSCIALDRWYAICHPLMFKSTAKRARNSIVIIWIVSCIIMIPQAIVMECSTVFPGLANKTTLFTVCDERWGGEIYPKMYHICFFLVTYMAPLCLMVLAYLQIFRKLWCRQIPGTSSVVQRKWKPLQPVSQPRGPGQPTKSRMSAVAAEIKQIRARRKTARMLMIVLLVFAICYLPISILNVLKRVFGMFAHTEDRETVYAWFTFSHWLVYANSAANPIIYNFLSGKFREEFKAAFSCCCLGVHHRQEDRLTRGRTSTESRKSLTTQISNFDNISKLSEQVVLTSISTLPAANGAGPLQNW
Protocol: as §1, §2

Structure (SMILES) | IC50 [1] [nM] | IC50 [2] [nM]
CCN(C(=O)c1cc(C)ccc1-n1nccn1)[C@H](C)Cn1ccc(-c2ccc(F)cn2)n1 [Example 2, N-Ethyl-N-{(2R)-1-[3-(5-fluoropyridin-2-yl)-1H-pyrazol-1-yl]propan-2-yl]-5-methyl-2-(2H-1,2,3-triazol-2-yl) benzamide] | 17.4 | 186
C[C@@H](Cn1ccc(-c2ccc(F)cn2)n1)N(C)C(=O)c1ccccc1-c1ncccn1 [Example 4, N-[(2S)-1-[3-(5-Fluoropyridin-2-yl)-1H-pyrazol-1-yl]propan-2-yl]-N-methyl-2-(pyrimidin-2-yl)benzamide] | 1.7 | 67
C[C@@H](Cn1ccc(-c2ccc(F)cn2)n1)N(C)C(=O)c1cc(F)ccc1-c1ncccn1 [Example 5, 5-Fluoro-N-{(2S)-1-[3-(5-fluoropyridin-2-yl)-1H-pyrazol-1-yl]propan-2-yl}-N-methyl-2-(pyrimidin-2-yl)benzamide] |  | 75.5
Cc1ccc(-c2ncccn2)c(C(=O)N(C)[C@@H](C)Cn2ccc(-c3ccc(F)cn3)n2)c1 [Example 6, N-{(2S)-1-[3-(5-Fluoropyridin-2-yl)-1H-pyrazol-1-yl]propan-2-yl}-N,5-dimethyl-2-(pyrimidin-2-yl) benzamide] | 1.2 | 8.4
CCN(C(=O)c1ccccc1-c1ncccn1)[C@@H](C)Cn1ccc(-c2ccc(F)cn2)n1 [Example 7, N-Ethyl-N-{(2S)-1-[3-(5-fluoropyridin-2-yl)-1H-pyrazol-1-yl]propan-2-yl}-2-(pyrirnidin-2-yl) benzamide] | 6.8 | 43.1
CCN(C(=O)c1cc(F)ccc1-c1ncccn1)[C@@H](C)Cn1ccc(-c2ccc(F)cn2)n1 [Example 8, N-Ethyl-5-fluoro-N-[(2S)-1-[3-(5-fluoropyridin-2-yl)-1H-pyrazol-1-yl]propan-2-yl]-2-(pyrimidin-2-yl) benzamide] | 1.5 | 35.3
CCN(C(=O)c1cc(F)ccc1-c1ncccn1)[C@H](C)Cn1ccc(-c2ccc(F)cn2)n1 [Example 9, N-Ethyl-5-fluoro-N-[(2R)-1-[3-(5-fluoropyridin-2-yl)-1H-pyrazol-1-yl]propan-2-yl)-2-(pyrimidin-2-yl) benzamide] | 988 | 1420
Cc1ccc(-c2ncccn2)c(C(=O)N(C)[C@@H](C)Cc2noc(-c3ccc(F)cn3)n2)c1 [Example 46, N-{(2S)-1-[5-(5-Fluoropyridin-2-yl)-1,2,4-oxadiazol-3-yl]propan-2-yl}-N,5-dimethyl-2-(pyrimidin-2-yl)benzamide] | 21.6 | 

More lines, in order of falling IC50 [1], values ahead:

IC50 [1] [nM] | IC50 [2] [nM] | Structure (SMILES)
1 | 1.1 | CCN(C(=O)c1cc(C)ccc1-n1nccn1)[C@@H](C)Cn1ccc(-c2ccc(F)cn2)n1 [Example 1, N-Ethyl-N-{(2S)-1-[3-(5-fluoropyridin-2-yl)-1H-pyrazol-1-yl]propan-2-yl}-5-methyl-2-(2H-1,2,3-triazol-2-yl)benzamide]
1 | 4.5 | CCN(C(=O)c1nc(C)ccc1-n1nccn1)[C@@H](C)Cn1ccc(-c2ccc(F)cc2)n1 [Example 3, N-Ethyl-N-[(2S)-1-[3-(4-fluorophenyl)-1H-pyrazol-1-yl]propan-2-yl]-6-methyl-3-(2H-1,2,3-triazol-2-yl) pyridine-2-carboxamide]
0.2 | 12.8 | CCN(C(=O)c1ccccc1-c1ncccn1)[C@@H](C)Cn1ccc(-c2ccc(F)cc2)n1 [Example 10, N-Ethyl-N-[(2S)-1-[3-(4-fluorophenyl)-1H-pyrazol-1-yl]propan-2-yl)-2-(pyrimidin--2-yl) benzamide]
0.2 | 14.4 | CCN(C(=O)c1cc(F)ccc1-c1ncccn1)[C@@H](C)Cn1ccc(-c2ccc(F)cc2)n1 [Example 11, N-Ethyl-5-fluoro-N-[(2S)-1-[3-(4-fluorophenyl)-1H-pyrazol-1-yl]propan-2-yl}-2-(pyrimidin-2-yl) benzamide]

— US20150166523A1, “BRANCHED CHAIN ALKYL HETEROAROMATIC RING DERIVATIVE” (TAISHO PHARMACEUTICAL CO., LTD., priority 2012, published 2015)
